Reference: US11912663B2, “Multi-targeted tyrosine kinase inhibitors and their pharmaceutical uses” (Shanghai AB PharmaTech Ltd., priority 2021, dated 2024)

Test system: lung cancer cell line (A549)
Assay: tumor cell proliferation inhibition (CTG), lung cancer cell line
Type: cell-based
Settings: Homo sapiens, 72 hours

With COc1cc2nccc(Oc3c(F)cc(NC(=O)NC4CC4)c(Cl)c3F)c2cc1C(=O)NC[C@@H](O)CO [IIIb-21] as the molecule, how does the IC50 read?
The IC50 was under 2500 nM.

Which IC50 does the source give for NC(=O)c1cc2c(Oc3c(F)cc(NC(=O)NC4CC4)c(Cl)c3F)ccnc2cc1OCC(F)F [IIIb-56] here?
Its IC50 is under 2500 nM.

With COc1cc2nccc(Oc3c(F)cc(NC(=O)NC4CC4)c(Cl)c3F)c2cc1C(=O)NCCC#N [IIIb-50] as the molecule, how does the IC50 read?
Its IC50 is under 2500 nM.

Biological target: FGFR2 (Homo sapiens (Human), UniProt P21802)
Assay: kinase inhibition, Mobility-Shift Assay
Type: biochemical
Settings: 1.9 μM ATP

Sequence of FGFR2 (P21802 22-821): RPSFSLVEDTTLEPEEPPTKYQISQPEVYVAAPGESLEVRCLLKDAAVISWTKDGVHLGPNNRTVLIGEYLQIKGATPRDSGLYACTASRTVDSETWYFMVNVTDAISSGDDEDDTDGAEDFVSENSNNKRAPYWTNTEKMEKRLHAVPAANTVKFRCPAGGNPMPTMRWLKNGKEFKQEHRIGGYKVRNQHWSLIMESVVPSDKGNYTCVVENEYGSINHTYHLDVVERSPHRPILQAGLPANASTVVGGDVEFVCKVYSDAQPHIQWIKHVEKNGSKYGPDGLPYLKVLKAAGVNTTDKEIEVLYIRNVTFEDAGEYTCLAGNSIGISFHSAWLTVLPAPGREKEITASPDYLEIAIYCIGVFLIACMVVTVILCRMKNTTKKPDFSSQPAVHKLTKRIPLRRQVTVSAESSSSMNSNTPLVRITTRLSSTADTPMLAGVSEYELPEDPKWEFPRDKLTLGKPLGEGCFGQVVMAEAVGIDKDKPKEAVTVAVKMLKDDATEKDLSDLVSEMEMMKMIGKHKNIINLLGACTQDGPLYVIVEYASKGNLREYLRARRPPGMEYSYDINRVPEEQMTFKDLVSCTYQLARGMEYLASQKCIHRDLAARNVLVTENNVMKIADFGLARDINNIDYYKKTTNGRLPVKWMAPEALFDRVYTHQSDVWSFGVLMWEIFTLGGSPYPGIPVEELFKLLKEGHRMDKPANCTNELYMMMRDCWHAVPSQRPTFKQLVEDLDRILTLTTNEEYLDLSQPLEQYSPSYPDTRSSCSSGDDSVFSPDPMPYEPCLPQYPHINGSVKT

With COc1cc2nccc(Oc3c(F)cc(NC(=O)NC4CC4)c(Cl)c3F)c2cc1C(=O)NC[C@@H](O)CO [IIIb-21] as the molecule, how does the IC50 read?
The IC50 was 50 to 100 nM.

Which IC50 does the source give for NC(=O)c1cc2c(Oc3c(F)cc(NC(=O)NC4CC4)c(Cl)c3F)ccnc2cc1OCC(F)F [IIIb-56] here?
Its IC50 is under 50 nM.

For COc1cc2nccc(Oc3c(F)cc(NC(=O)NC4CC4)c(Cl)c3F)c2cc1C(=O)NCCC#N [IIIb-50], which IC50 is on record?
Its IC50 is under 50 nM.

Biological target: VEGFR1 (FLT1) (Homo sapiens (Human), UniProt P17948)
Assay: kinase inhibition, Mobility-Shift Assay
Type: biochemical
Settings: 278 μM ATP

Sequence of VEGFR1 (FLT1) (P17948 27-1338): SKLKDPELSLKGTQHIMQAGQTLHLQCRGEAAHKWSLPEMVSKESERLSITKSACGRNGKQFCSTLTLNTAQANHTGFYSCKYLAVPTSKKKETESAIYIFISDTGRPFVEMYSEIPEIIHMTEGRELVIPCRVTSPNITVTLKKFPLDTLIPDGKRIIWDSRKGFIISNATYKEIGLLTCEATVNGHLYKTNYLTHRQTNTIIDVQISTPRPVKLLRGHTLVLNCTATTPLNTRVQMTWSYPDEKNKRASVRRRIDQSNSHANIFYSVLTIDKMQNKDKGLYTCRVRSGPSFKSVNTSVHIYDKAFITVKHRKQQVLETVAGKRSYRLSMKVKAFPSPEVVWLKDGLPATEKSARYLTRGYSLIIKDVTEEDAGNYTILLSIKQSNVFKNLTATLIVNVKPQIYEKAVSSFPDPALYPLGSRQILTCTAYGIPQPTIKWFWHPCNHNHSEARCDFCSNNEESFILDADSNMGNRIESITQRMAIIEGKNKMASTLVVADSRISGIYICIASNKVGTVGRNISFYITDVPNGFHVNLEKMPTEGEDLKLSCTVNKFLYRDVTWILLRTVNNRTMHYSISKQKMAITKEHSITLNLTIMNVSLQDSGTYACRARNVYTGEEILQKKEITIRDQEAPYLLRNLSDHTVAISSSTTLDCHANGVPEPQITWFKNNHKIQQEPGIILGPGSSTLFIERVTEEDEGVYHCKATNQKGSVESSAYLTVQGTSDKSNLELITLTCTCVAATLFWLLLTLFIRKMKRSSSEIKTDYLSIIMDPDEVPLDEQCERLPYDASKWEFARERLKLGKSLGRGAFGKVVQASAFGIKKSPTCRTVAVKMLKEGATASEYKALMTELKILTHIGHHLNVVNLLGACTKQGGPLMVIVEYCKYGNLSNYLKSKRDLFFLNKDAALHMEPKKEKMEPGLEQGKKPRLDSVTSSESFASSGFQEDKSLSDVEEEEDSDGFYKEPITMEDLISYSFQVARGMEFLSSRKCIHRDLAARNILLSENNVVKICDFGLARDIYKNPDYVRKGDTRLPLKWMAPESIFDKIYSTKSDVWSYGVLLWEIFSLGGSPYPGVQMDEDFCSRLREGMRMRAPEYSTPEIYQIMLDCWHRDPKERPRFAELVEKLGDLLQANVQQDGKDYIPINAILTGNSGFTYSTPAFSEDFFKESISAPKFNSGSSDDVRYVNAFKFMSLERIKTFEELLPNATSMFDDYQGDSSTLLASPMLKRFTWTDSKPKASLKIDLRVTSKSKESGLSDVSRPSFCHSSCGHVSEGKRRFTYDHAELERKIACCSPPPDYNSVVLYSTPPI

For COc1cc2nccc(Oc3c(F)cc(NC(=O)NC4CC4)c(Cl)c3F)c2cc1C(=O)NC[C@@H](O)CO [IIIb-21], which IC50 is on record?
The IC50 was under 5 nM.

With NC(=O)c1cc2c(Oc3c(F)cc(NC(=O)NC4CC4)c(Cl)c3F)ccnc2cc1OCC(F)F [IIIb-56] as the molecule, how does the IC50 read?
The IC50 was under 5 nM.

Which IC50 does the source give for COc1cc2nccc(Oc3c(F)cc(NC(=O)NC4CC4)c(Cl)c3F)c2cc1C(=O)NCCC#N [IIIb-50] here?
Its IC50 is under 5 nM.

Test system: cervical cancer cell lines (Hela)
Assay: tumor cell proliferation inhibition (CTG), cervical cancer cell line
Type: cell-based
Settings: Homo sapiens, 72 hours

Which IC50 does the source give for COc1cc2nccc(Oc3c(F)cc(NC(=O)NC4CC4)c(Cl)c3F)c2cc1C(=O)NC[C@@H](O)CO [IIIb-21] here?
The IC50 was over 10000 nM.

With NC(=O)c1cc2c(Oc3c(F)cc(NC(=O)NC4CC4)c(Cl)c3F)ccnc2cc1OCC(F)F [IIIb-56] as the molecule, how does the IC50 read?
The IC50 was under 5000 nM.

Which IC50 does the source give for COc1cc2nccc(Oc3c(F)cc(NC(=O)NC4CC4)c(Cl)c3F)c2cc1C(=O)NCCC#N [IIIb-50] here?
Its IC50 is under 5000 nM.

Test system: gastric cancer cell line (SNU16)
Assay: tumor cell proliferation inhibition (CTG), gastric cancer cell line
Type: cell-based
Settings: Homo sapiens, SNU-16, 72 hours, read-out: SUN16 IC50

For COc1cc2nccc(Oc3c(F)cc(NC(=O)NC4CC4)c(Cl)c3F)c2cc1C(=O)NC[C@@H](O)CO [IIIb-21], which IC50 is on record?
Its IC50 is over 10000 nM.

For NC(=O)c1cc2c(Oc3c(F)cc(NC(=O)NC4CC4)c(Cl)c3F)ccnc2cc1OCC(F)F [IIIb-56], which IC50 is on record?
Its IC50 is under 5000 nM.

For COc1cc2nccc(Oc3c(F)cc(NC(=O)NC4CC4)c(Cl)c3F)c2cc1C(=O)NCCC#N [IIIb-50], which IC50 is on record?
The IC50 was under 5000 nM.

Biological target: VEGFR2 (KDR) (Homo sapiens (Human), UniProt P35968)
Assay: kinase inhibition, Mobility-Shift Assay
Type: biochemical
Settings: VEGFR2, 92 μM ATP

With COc1cc2nccc(Oc3c(F)cc(NC(=O)NC4CC4)c(Cl)c3F)c2cc1C(=O)NC[C@@H](O)CO [IIIb-21] as the molecule, how does the IC50 read?
The IC50 was under 5 nM.

With NC(=O)c1cc2c(Oc3c(F)cc(NC(=O)NC4CC4)c(Cl)c3F)ccnc2cc1OCC(F)F [IIIb-56] as the molecule, how does the IC50 read?
The IC50 was under 5 nM.

With COc1cc2nccc(Oc3c(F)cc(NC(=O)NC4CC4)c(Cl)c3F)c2cc1C(=O)NCCC#N [IIIb-50] as the molecule, how does the IC50 read?
Its IC50 is under 5 nM.

Test system: prostatic cancer (PC-3)
Assay: tumor cell proliferation inhibition (CTG), PC-3
Type: cell-based
Settings: 72 hours

With COc1cc2nccc(Oc3c(F)cc(NC(=O)NC4CC4)c(Cl)c3F)c2cc1C(=O)NC[C@@H](O)CO [IIIb-21] as the molecule, how does the IC50 read?
Its IC50 is over 10000 nM.

Which IC50 does the source give for NC(=O)c1cc2c(Oc3c(F)cc(NC(=O)NC4CC4)c(Cl)c3F)ccnc2cc1OCC(F)F [IIIb-56] here?
Its IC50 is 5000 to 10000 nM.

With COc1cc2nccc(Oc3c(F)cc(NC(=O)NC4CC4)c(Cl)c3F)c2cc1C(=O)NCCC#N [IIIb-50] as the molecule, how does the IC50 read?
The IC50 was 5000 to 10000 nM.

Test system: not listed separately
Assay: MTD toxicity test in rats
Type: in vivo
Settings: rat, in vivo, 150 mg/kg

With NC(=O)c1cc2c(Oc3c(F)cc(NC(=O)NC4CC4)c(Cl)c3F)ccnc2cc1OCC(F)F [IIIb-56] as the molecule, how does the “MTD toxicity test, clinical outcome” value read?
Its value is “no abnormalities such as death”.

For COc1cc2nccc(Oc3c(F)cc(NC(=O)NC4CC4)c(Cl)c3F)c2cc1C(=O)NCCC#N [IIIb-50], which “MTD toxicity test, clinical outcome” value is on record?
The value was “no abnormalities such as death”.

Same assay, conditions: rats, 150 mg/kg, QD, 14 days; heart, liver, lungs, kidneys, stomach, intestines and other organs

With NC(=O)c1cc2c(Oc3c(F)cc(NC(=O)NC4CC4)c(Cl)c3F)ccnc2cc1OCC(F)F [IIIb-56] as the molecule, how does the “autopsy results of organs” value read?
Its value is “did not reveal any abnormal changes”.

For COc1cc2nccc(Oc3c(F)cc(NC(=O)NC4CC4)c(Cl)c3F)c2cc1C(=O)NCCC#N [IIIb-50], which “autopsy results of organs” value is on record?
Its value is “did not reveal any abnormal changes”.

Biological target: hERG potassium channels (Homo sapiens (Human), UniProt Q12809)
Assay: in vitro inhibitory effect of hERG, whole-cell patch clamp
Type: cell-based
Settings: whole-cell recording, room temperature

Which IC50 does the source give for NC(=O)c1cc2c(Oc3c(F)cc(NC(=O)NC4CC4)c(Cl)c3F)ccnc2cc1OCC(F)F [IIIb-56] here?
Its IC50 is over 30000 nM.

Which IC50 does the source give for COc1cc2nccc(Oc3c(F)cc(NC(=O)NC4CC4)c(Cl)c3F)c2cc1C(=O)NCCC#N [IIIb-50] here?
The IC50 was over 30000 nM.

Test system: kidney cancer cell line (Caki-1)
Assay: tumor cell proliferation inhibition (CTG), kidney cancer cell line
Type: cell-based
Settings: Homo sapiens, 72 hours, read-out: Caki-1 (renal cancer) IC50

Which IC50 does the source give for COc1cc2nccc(Oc3c(F)cc(NC(=O)NC4CC4)c(Cl)c3F)c2cc1C(=O)NC[C@@H](O)CO [IIIb-21] here?
The IC50 was under 2500 nM.

With NC(=O)c1cc2c(Oc3c(F)cc(NC(=O)NC4CC4)c(Cl)c3F)ccnc2cc1OCC(F)F [IIIb-56] as the molecule, how does the IC50 read?
Its IC50 is under 2500 nM.

For COc1cc2nccc(Oc3c(F)cc(NC(=O)NC4CC4)c(Cl)c3F)c2cc1C(=O)NCCC#N [IIIb-50], which IC50 is on record?
The IC50 was under 2500 nM.

Test system: hepatocellular carcinoma cell line (Hep3B 2.1-7)
Assay: tumor cell proliferation inhibition (CTG), hepatocellular carcinoma cell line
Type: cell-based
Settings: Homo sapiens, 72 hours

Which IC50 does the source give for COc1cc2nccc(Oc3c(F)cc(NC(=O)NC4CC4)c(Cl)c3F)c2cc1C(=O)NC[C@@H](O)CO [IIIb-21] here?
Its IC50 is 2500 to 5000 nM.

Which IC50 does the source give for NC(=O)c1cc2c(Oc3c(F)cc(NC(=O)NC4CC4)c(Cl)c3F)ccnc2cc1OCC(F)F [IIIb-56] here?
Its IC50 is under 2500 nM.

With COc1cc2nccc(Oc3c(F)cc(NC(=O)NC4CC4)c(Cl)c3F)c2cc1C(=O)NCCC#N [IIIb-50] as the molecule, how does the IC50 read?
Its IC50 is under 2500 nM.

Test system: leukemia cell line (K562)
Assay: tumor cell proliferation inhibition (CTG), leukemia cell line
Type: cell-based
Settings: Homo sapiens, 72 hours

With COc1cc2nccc(Oc3c(F)cc(NC(=O)NC4CC4)c(Cl)c3F)c2cc1C(=O)NC[C@@H](O)CO [IIIb-21] as the molecule, how does the IC50 read?
Its IC50 is 5000 to 10000 nM.

Which IC50 does the source give for NC(=O)c1cc2c(Oc3c(F)cc(NC(=O)NC4CC4)c(Cl)c3F)ccnc2cc1OCC(F)F [IIIb-56] here?
The IC50 was under 5000 nM.

With COc1cc2nccc(Oc3c(F)cc(NC(=O)NC4CC4)c(Cl)c3F)c2cc1C(=O)NCCC#N [IIIb-50] as the molecule, how does the IC50 read?
The IC50 was under 5000 nM.

Test system: pancreatic cancer cell line (BXPC3)
Assay: tumor cell proliferation inhibition (CTG), pancreatic cancer cell line
Type: cell-based
Settings: Homo sapiens, BXPC-3, 72 hours

For COc1cc2nccc(Oc3c(F)cc(NC(=O)NC4CC4)c(Cl)c3F)c2cc1C(=O)NC[C@@H](O)CO [IIIb-21], which IC50 is on record?
Its IC50 is 5000 to 10000 nM.

With NC(=O)c1cc2c(Oc3c(F)cc(NC(=O)NC4CC4)c(Cl)c3F)ccnc2cc1OCC(F)F [IIIb-56] as the molecule, how does the IC50 read?
The IC50 was under 5000 nM.

With COc1cc2nccc(Oc3c(F)cc(NC(=O)NC4CC4)c(Cl)c3F)c2cc1C(=O)NCCC#N [IIIb-50] as the molecule, how does the IC50 read?
The IC50 was under 5000 nM.

Test system: BXPC3, SNU16, Hep3B 2.1-7 subcutaneous tumors
Assay: tumor suppression in nude mice with subcutaneously transplanted tumors
Type: in vivo
Settings: BXPC3, SNU16, Hep3B 2.1-7 transplants, within 3-4 weeks
Text: These preferred compounds (e.g., IIIb-08, IIIb-09, IIIb-45, IIIb-50, IIIb-55, IIIb-56, IIIb-57, IIIb-58, IIIb-60, IIIb-61, IIIb-65) are currently being used to […] in nude mice subcutaneously transplanted with pancreatic cancer cell line (BXPC3), gastric cancer cell line (SNU16), liver cancer cell line (Hep3B 2.1-7) and other tumor suppressive effects have been observed in vivo, the tumor suppression rate of subcutaneous tumors in nude mice could reach 80-110% within 3-4 weeks. […] Therefore, the preferred compounds “IIIb-08, IIIb-09, IIIb-45, IIIb-50, IIIb-55, IIIb-56, IIIb-57, IIIb-58, IIIb-60, IIIb-61, IIIb-65” designed and synthesized by the present invention not only have better inhibitory activity, but also have better safety and drug-forming properties, which are valuable for further preclinical studies such as pharmacotoxicology and clinical trials.

With NC(=O)c1cc2c(Oc3c(F)cc(NC(=O)NC4CC4)c(Cl)c3F)ccnc2cc1OCC(F)F [IIIb-56] as the molecule, how does the “tumor suppression rate of subcutaneous tumors” value read?
Its value is 80-110%.

For COc1cc2nccc(Oc3c(F)cc(NC(=O)NC4CC4)c(Cl)c3F)c2cc1C(=O)NCCC#N [IIIb-50], which “tumor suppression rate of subcutaneous tumors” value is on record?
Its value is 80-110%.

Biological target: RET (Homo sapiens (Human), UniProt P07949)
Assay: kinase inhibition, Mobility-Shift Assay
Type: biochemical
Settings: 23 μM ATP

Sequence of RET (P07949 29-1114): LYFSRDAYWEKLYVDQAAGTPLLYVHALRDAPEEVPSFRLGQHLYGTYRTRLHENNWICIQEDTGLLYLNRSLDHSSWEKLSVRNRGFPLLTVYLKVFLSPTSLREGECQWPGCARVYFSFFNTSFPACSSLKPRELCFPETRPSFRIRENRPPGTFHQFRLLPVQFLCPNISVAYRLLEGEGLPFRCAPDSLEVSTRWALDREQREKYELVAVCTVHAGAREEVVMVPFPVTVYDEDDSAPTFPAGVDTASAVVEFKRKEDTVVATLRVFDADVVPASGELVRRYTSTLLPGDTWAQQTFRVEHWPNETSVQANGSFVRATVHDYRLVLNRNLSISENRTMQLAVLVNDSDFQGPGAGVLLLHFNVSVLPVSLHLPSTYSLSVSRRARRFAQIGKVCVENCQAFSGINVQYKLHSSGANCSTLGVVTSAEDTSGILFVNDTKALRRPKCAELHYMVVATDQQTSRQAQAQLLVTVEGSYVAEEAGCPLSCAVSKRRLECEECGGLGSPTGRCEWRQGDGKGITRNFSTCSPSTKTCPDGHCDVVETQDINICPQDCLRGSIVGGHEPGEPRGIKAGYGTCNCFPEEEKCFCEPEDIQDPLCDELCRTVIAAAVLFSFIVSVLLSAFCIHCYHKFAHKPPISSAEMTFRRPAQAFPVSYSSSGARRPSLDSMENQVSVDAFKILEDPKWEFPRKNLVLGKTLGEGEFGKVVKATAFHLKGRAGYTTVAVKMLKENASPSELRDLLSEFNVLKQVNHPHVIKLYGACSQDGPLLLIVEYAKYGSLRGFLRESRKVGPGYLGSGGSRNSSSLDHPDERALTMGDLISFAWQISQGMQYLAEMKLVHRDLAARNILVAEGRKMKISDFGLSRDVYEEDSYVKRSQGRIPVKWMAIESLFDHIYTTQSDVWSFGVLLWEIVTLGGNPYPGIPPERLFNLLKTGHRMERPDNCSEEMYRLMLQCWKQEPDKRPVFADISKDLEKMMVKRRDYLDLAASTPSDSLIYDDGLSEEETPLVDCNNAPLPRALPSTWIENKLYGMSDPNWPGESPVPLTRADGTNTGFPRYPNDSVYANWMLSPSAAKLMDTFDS

Which IC50 does the source give for COc1cc2nccc(Oc3c(F)cc(NC(=O)NC4CC4)c(Cl)c3F)c2cc1C(=O)NC[C@@H](O)CO [IIIb-21] here?
The IC50 was 5 to 10 nM.

Which IC50 does the source give for NC(=O)c1cc2c(Oc3c(F)cc(NC(=O)NC4CC4)c(Cl)c3F)ccnc2cc1OCC(F)F [IIIb-56] here?
The IC50 was under 5 nM.

With COc1cc2nccc(Oc3c(F)cc(NC(=O)NC4CC4)c(Cl)c3F)c2cc1C(=O)NCCC#N [IIIb-50] as the molecule, how does the IC50 read?
The IC50 was under 5 nM.

Biological target: VEGFR3 (FLT4) (Homo sapiens (Human), UniProt P35916)
Assay: kinase inhibition, Mobility-Shift Assay
Type: biochemical
Settings: 84 μM ATP

Sequence of VEGFR3 (FLT4) (P35916 25-1363): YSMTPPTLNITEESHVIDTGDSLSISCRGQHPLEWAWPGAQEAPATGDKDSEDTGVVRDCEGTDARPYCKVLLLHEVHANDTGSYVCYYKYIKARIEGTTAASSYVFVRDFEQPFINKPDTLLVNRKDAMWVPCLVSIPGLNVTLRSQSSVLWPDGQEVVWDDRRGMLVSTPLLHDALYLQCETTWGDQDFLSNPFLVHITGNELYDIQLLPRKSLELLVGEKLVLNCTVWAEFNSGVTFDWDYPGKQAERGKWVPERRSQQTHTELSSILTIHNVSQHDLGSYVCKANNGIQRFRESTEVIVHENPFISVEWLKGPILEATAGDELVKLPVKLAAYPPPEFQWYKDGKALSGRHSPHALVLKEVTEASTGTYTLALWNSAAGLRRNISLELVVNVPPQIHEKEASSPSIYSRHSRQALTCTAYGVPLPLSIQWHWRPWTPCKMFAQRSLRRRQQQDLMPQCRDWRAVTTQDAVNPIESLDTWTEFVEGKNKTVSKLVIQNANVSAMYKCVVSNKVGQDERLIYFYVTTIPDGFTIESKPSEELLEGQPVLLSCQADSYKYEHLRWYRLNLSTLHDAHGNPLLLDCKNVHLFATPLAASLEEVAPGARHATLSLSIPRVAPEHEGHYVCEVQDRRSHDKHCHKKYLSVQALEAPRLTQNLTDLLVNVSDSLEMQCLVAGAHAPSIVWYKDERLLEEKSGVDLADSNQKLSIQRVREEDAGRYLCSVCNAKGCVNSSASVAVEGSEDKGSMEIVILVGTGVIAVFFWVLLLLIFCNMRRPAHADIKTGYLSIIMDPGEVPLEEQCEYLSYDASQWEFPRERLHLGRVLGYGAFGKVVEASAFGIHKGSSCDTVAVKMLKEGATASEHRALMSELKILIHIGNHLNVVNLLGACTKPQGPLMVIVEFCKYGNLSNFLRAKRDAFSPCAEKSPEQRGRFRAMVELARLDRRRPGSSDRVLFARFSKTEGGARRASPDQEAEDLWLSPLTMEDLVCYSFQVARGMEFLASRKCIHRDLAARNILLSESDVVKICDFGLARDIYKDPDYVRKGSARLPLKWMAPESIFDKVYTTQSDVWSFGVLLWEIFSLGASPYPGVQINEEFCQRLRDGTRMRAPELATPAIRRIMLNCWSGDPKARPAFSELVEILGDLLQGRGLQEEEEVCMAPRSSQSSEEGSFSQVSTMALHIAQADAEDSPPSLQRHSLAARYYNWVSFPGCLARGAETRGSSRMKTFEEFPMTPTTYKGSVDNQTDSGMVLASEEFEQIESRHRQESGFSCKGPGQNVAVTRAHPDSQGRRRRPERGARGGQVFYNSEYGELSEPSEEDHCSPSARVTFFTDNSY

For COc1cc2nccc(Oc3c(F)cc(NC(=O)NC4CC4)c(Cl)c3F)c2cc1C(=O)NC[C@@H](O)CO [IIIb-21], which IC50 is on record?
The IC50 was under 5 nM.

For NC(=O)c1cc2c(Oc3c(F)cc(NC(=O)NC4CC4)c(Cl)c3F)ccnc2cc1OCC(F)F [IIIb-56], which IC50 is on record?
The IC50 was under 5 nM.

With COc1cc2nccc(Oc3c(F)cc(NC(=O)NC4CC4)c(Cl)c3F)c2cc1C(=O)NCCC#N [IIIb-50] as the molecule, how does the IC50 read?
Its IC50 is under 5 nM.
